Assay results as given in patent US10344060B2 (priority 2013, dated 2019).

molecular target: hNav1.4 (Homo sapiens, UniProt P35499); assay: cell-based; assay type: cell-based; details: Table 12; PatchXpress, tonic block; read-out: PX hNav1.4 Tonic IC50
Sequence (P35499 whole entry): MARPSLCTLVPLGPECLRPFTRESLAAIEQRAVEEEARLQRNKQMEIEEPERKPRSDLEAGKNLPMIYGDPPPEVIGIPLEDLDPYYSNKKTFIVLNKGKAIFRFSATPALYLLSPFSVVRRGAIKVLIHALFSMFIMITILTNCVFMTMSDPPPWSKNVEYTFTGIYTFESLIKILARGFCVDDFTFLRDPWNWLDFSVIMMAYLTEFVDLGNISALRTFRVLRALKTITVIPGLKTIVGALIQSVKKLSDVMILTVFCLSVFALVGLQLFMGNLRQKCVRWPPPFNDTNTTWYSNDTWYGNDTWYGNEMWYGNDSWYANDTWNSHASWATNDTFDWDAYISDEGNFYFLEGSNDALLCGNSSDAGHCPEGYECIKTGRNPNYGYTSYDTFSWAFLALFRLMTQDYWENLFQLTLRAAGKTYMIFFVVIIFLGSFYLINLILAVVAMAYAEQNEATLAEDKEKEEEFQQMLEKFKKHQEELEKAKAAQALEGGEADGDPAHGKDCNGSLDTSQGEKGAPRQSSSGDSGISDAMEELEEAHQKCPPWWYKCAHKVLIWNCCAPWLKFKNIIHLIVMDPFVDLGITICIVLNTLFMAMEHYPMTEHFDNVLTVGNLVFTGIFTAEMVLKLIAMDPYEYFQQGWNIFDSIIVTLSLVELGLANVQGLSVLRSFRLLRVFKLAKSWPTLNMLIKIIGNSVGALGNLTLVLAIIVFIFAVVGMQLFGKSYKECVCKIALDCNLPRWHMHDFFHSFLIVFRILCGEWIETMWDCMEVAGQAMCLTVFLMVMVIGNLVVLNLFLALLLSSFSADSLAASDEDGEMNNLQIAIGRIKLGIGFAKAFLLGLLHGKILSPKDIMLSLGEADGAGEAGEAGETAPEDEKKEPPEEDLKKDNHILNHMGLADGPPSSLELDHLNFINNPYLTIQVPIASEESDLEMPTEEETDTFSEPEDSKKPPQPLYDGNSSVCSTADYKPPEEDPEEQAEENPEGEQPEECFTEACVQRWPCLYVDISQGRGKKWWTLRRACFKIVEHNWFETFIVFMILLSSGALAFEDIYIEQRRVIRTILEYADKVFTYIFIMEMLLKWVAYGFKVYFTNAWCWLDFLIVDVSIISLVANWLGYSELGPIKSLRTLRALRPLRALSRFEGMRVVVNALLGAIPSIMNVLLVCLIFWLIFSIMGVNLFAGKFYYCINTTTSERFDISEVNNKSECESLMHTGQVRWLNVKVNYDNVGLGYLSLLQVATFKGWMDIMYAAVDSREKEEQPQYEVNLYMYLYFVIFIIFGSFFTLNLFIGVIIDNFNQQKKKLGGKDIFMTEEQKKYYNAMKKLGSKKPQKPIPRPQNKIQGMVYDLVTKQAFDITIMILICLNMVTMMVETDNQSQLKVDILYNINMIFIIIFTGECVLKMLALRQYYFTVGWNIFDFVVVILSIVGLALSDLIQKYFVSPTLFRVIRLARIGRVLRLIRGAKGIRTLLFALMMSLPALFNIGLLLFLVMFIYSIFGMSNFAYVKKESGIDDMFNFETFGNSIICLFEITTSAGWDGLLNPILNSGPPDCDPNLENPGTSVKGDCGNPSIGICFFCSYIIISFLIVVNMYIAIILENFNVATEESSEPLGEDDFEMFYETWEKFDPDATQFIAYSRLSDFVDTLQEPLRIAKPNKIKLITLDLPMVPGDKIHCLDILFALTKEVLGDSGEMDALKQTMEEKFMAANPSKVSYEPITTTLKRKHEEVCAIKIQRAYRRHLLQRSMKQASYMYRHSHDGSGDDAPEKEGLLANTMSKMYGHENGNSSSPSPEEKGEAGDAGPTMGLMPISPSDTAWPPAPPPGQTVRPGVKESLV

SMILES	IC50
C#CC[C@H](N)C(=O)NCCCC[C@@H]1NC(=O)[C@H](CCCNC(=N)N)NC(=O)[C@H](CCCCN)NC(=O)[C@H](CO)NC(=O)[C@H](CC(=O)O)NC(=O)[C@@H]2CSSC[C@@H]3NC(=O)[C@H](CCCNC(=N)N)NC(=O)[C@H](CC(C)C)NC(=O)CNC(=O)[C@H](CCC(=O)O)NC(=O)[C@H](CSSC[C@H](NC(=O)[C@H](Cc4ccc(O)cc4)NC(=O)[C@@H](N)CCC)C(=O)N[C@@H](CCC(N)=O)C(=O)N[C@@H](CCCCN)C(=O)N[C@@H](Cc4c[nH]c5ccccc45)C(=O)N[C@@H](CC(C)C)C(=O)N[C@@H](Cc4c[nH]c5ccccc45)C(=O)N[C@@H]([C@@H](C)O)C(=O)N2)NC(=O)[C@H](CSSC[C@@H](C(=O)N[C@@H](CCCNC(=N)N)C(=O)N[C@@H](CCCCN)C(=O)N[C@@H](CCC(=O)O)C(=O)N[C@H](C(N)=O)[C@@H](C)CC)NC(=O)[C@H](Cc2c[nH]c4ccccc24)NC(=O)[C@H](CC(C)C)NC(=O)[C@H](CCCCN)NC3=O)NC1=O [compound 439]	300 nM

same assay, conditions: Table 12; ratio of PX tonic IC50 values

SMILES	Nav1.4/Nav1.7
C#CC[C@H](N)C(=O)NCCCC[C@@H]1NC(=O)[C@H](CCCNC(=N)N)NC(=O)[C@H](CCCCN)NC(=O)[C@H](CO)NC(=O)[C@H](CC(=O)O)NC(=O)[C@@H]2CSSC[C@@H]3NC(=O)[C@H](CCC(=O)O)NC(=O)[C@H](CC(C)C)NC(=O)CNC(=O)[C@H](CCC(=O)O)NC(=O)[C@H](CSSC[C@H](NC(=O)[C@H](Cc4ccc(O)cc4)NC(=O)[C@@H](N)CC#N)C(=O)N[C@@H](CCC(N)=O)C(=O)N[C@@H](CCCCN)C(=O)N[C@@H](Cc4c[nH]c5ccccc45)C(=O)N[C@@H](CCCC)C(=O)N[C@@H](Cc4c[nH]c5ccccc45)C(=O)N[C@@H]([C@@H](C)O)C(=O)N2)NC(=O)[C@H](CSSC[C@@H](C(=O)N[C@@H](CCCNC(=N)N)C(=O)N[C@@H](CCCCN)C(=O)N[C@@H](Cc2ccc(O)cc2)C(=O)N[C@H](C(N)=O)[C@@H](C)CC)NC(=O)[C@H](Cc2c[nH]c4ccccc24)NC(=O)[C@H](CC(C)C)NC(=O)[C@H](CCCCN)NC3=O)NC1=O [compound 394]	19130
C#CC[C@@H]1NC(=O)[C@@H]2CSSC[C@H](NC(=O)[C@H](Cc3ccc(O)cc3)NC(=O)[C@@H](N)CC#N)C(=O)N[C@@H](CCC(N)=O)C(=O)N[C@@H](CCCCN)C(=O)N[C@@H](Cc3c[nH]c4ccccc34)C(=O)N[C@@H](CCCC)C(=O)N[C@@H](Cc3c[nH]c4ccccc34)C(=O)N[C@@H]([C@@H](C)O)C(=O)N[C@H]3CSSC[C@H](NC(=O)[C@H](CCC(=O)O)NC(=O)[C@H](CC(C)C)NC(=O)CNC1=O)C(=O)N[C@@H](CCCCN)C(=O)N[C@@H](CC(C)C)C(=O)N[C@@H](Cc1c[nH]c4ccccc14)C(=O)N[C@H](C(=O)N[C@@H](CCCNC(=N)N)C(=O)N[C@@H](CCCCN)C(=O)N[C@@H](Cc1ccc(O)cc1)C(=O)N[C@H](C(N)=O)[C@@H](C)CC)CSSC[C@H](NC(=O)[C@H](C)NC(=O)[C@H](CCCNC(=N)N)NC(=O)[C@H](CCCCN)NC(=O)[C@H](CO)NC(=O)[C@H](CC(=O)O)NC3=O)C(=O)N2 [compound 397]	20
C#CC[C@H](N)C(=O)NCCOCCOCCOCCOCCC(=O)NCCCC[C@@H]1NC(=O)[C@H](CCCNC(=N)N)NC(=O)[C@H](CCCCN)NC(=O)[C@H](CO)NC(=O)[C@H](CC(=O)O)NC(=O)[C@@H]2CSSC[C@@H]3NC(=O)[C@H](CCCNC(=N)N)NC(=O)[C@H](CC(C)C)NC(=O)CNC(=O)[C@H](CCC(=O)O)NC(=O)[C@H](CSSC[C@H](NC(=O)[C@H](Cc4ccc(O)cc4)NC(=O)[C@@H](N)CCC)C(=O)N[C@@H](CCC(N)=O)C(=O)N[C@@H](CCCCN)C(=O)N[C@@H](Cc4c[nH]c5ccccc45)C(=O)N[C@@H](CCCC)C(=O)N[C@@H](Cc4c[nH]c5ccccc45)C(=O)N[C@@H]([C@@H](C)O)C(=O)N2)NC(=O)[C@H](CSSC[C@@H](C(=O)N[C@@H](CCCNC(=N)N)C(=O)N[C@@H](CCCCN)C(=O)N[C@H](C(=O)N[C@H](C(N)=O)[C@@H](C)CC)[C@@H](C)CC)NC(=O)[C@H](Cc2c[nH]c4ccccc24)NC(=O)[C@H](CC(C)C)NC(=O)[C@H](CCCCN)NC3=O)NC1=O [compound 432]	12
C#CC[C@H](N)C(=O)NCCCC[C@@H]1NC(=O)[C@H](CCCNC(=N)N)NC(=O)[C@H](CCCCN)NC(=O)[C@H](CO)NC(=O)[C@H](CC(=O)O)NC(=O)[C@@H]2CSSC[C@@H]3NC(=O)[C@H](CCCNC(=N)N)NC(=O)[C@H](CC(C)C)NC(=O)CNC(=O)[C@H](CCC(=O)O)NC(=O)[C@H](CSSC[C@H](NC(=O)[C@H](Cc4ccc(O)cc4)NC(=O)[C@@H](N)CCC)C(=O)N[C@@H](CCC(N)=O)C(=O)N[C@@H](CCCCN)C(=O)N[C@@H](Cc4c[nH]c5ccccc45)C(=O)N[C@@H](CCCC)C(=O)N[C@@H](Cc4c[nH]c5ccccc45)C(=O)N[C@@H]([C@@H](C)O)C(=O)N2)NC(=O)[C@H](CSSC[C@@H](C(=O)N[C@@H](CCCNC(=N)N)C(=O)N[C@@H](CCCCN)C(=O)N[C@@H](CCC(=O)O)C(=O)N[C@H](C(N)=O)[C@@H](C)CC)NC(=O)[C@H](Cc2c[nH]c4ccccc24)NC(=O)[C@H](CC(C)C)NC(=O)[C@H](CCCCN)NC3=O)NC1=O [compound 435]	99
C#CC[C@H](N)C(=O)NCCCC[C@@H]1NC(=O)[C@H](CCCNC(=N)N)NC(=O)[C@H](CCCCN)NC(=O)[C@H](CO)NC(=O)[C@H](CC(=O)O)NC(=O)[C@@H]2CSSC[C@@H]3NC(=O)[C@H](CCCNC(=N)N)NC(=O)[C@H](CC(C)C)NC(=O)CNC(=O)[C@H](CCC(=O)O)NC(=O)[C@H](CSSC[C@H](NC(=O)[C@H](Cc4ccc(O)cc4)NC(=O)[C@@H](N)CCC)C(=O)N[C@@H](CCC(N)=O)C(=O)N[C@@H](CCCCN)C(=O)N[C@@H](Cc4c[nH]c5ccccc45)C(=O)N[C@@H](CC(C)C)C(=O)N[C@@H](Cc4c[nH]c5ccccc45)C(=O)N[C@@H]([C@@H](C)O)C(=O)N2)NC(=O)[C@H](CSSC[C@@H](C(=O)N[C@@H](CCCNC(=N)N)C(=O)N[C@@H](CCCCN)C(=O)N[C@H](C(=O)N[C@H](C(N)=O)[C@@H](C)CC)[C@@H](C)CC)NC(=O)[C@H](Cc2c[nH]c4ccccc24)NC(=O)[C@H](CC(C)C)NC(=O)[C@H](CCCCN)NC3=O)NC1=O [compound 438]	7

same assay, conditions: Table 13; ratio of PX tonic IC50 values

SMILES	Nav1.4/Nav1.7
CCCC[C@@H]1NC(=O)[C@H](Cc2c[nH]c3ccccc23)NC(=O)[C@H](CCCCN)NC(=O)[C@H](CCC(N)=O)NC(=O)[C@@H](NC(=O)[C@H](Cc2ccc(O)cc2)NC(=O)[C@@H](N)Cc2cn(CCOCCOCCOCCOCCOCCOCCOCCOCCOCCOCCOCCOCCOCCOCCOCCOCCOCCOCCOCCOCCOCCOCCOCCNC(=O)c3cc(CN)cc(C(=O)NCCOCCOCCOCCOCCOCCOCCOCCOCCOCCOCCOCCOCCOCCOCCOCCOCCOCCOCCOCCOCCOCCOCCOCCn4cc(C[C@H](N)C(=O)N[C@@H](Cc5ccc(O)cc5)C(=O)N[C@H]5CSSC[C@@H]6NC(=O)[C@@H]7CSSC[C@@H](C(=O)N[C@@H](CCCNC(=N)N)C(=O)N[C@@H](CCCCN)C(=O)N[C@@H](CCC(=O)O)C(=O)N[C@H](C(N)=O)[C@@H](C)CC)NC(=O)[C@H](Cc8c[nH]c9ccccc89)NC(=O)[C@H](CC(C)C)NC(=O)[C@H](CCCCN)NC(=O)[C@H](CSSC[C@H](NC(=O)[C@H]([C@@H](C)O)NC(=O)[C@H](Cc8c[nH]c9ccccc89)NC(=O)[C@H](CCCC)NC(=O)[C@H](Cc8c[nH]c9ccccc89)NC(=O)[C@H](CCCCN)NC(=O)[C@H](CCC(N)=O)NC5=O)C(=O)N[C@@H](CC(=O)O)C(=O)N[C@@H](CO)C(=O)N[C@@H](CCCCN)C(=O)N[C@@H](CCCNC(=N)N)C(=O)N[C@@H](C)C(=O)N7)NC(=O)[C@H](CCCNC(=N)N)NC(=O)[C@H](CC(C)C)NC(=O)CNC(=O)[C@H](CCC(=O)O)NC6=O)nn4)c3)nn2)CSSC[C@@H]2NC(=O)[C@@H]3CSSC[C@@H](C(=O)N[C@@H](CCCNC(=N)N)C(=O)N[C@@H](CCCCN)C(=O)N[C@@H](CCC(=O)O)C(=O)N[C@H](C(N)=O)[C@@H](C)CC)NC(=O)[C@H](Cc4c[nH]c5ccccc45)NC(=O)[C@H](CC(C)C)NC(=O)[C@H](CCCCN)NC(=O)[C@H](CSSC[C@H](NC(=O)[C@H]([C@@H](C)O)NC(=O)[C@H](Cc4c[nH]c5ccccc45)NC1=O)C(=O)N[C@@H](CC(=O)O)C(=O)N[C@@H](CO)C(=O)N[C@@H](CCCCN)C(=O)N[C@@H](CCCNC(=N)N)C(=O)N[C@@H](C)C(=O)N3)NC(=O)[C@H](CCCNC(=N)N)NC(=O)[C@H](CC(C)C)NC(=O)CNC(=O)[C@H](CCC(=O)O)NC2=O [Homodimeric Conjugate No. 7]	94
CCCC[C@@H]1NC(=O)[C@H](Cc2c[nH]c3ccccc23)NC(=O)[C@H](CCCCN)NC(=O)[C@H](CCC(N)=O)NC(=O)[C@@H](NC(=O)[C@@H](N)Cc2ccc(O)cc2)CSSC[C@@H]2NC(=O)[C@@H]3CSSC[C@@H](C(=O)N[C@@H](CCCNC(=N)N)C(=O)N[C@@H](CCCCN)C(=O)N[C@@H](CCC(=O)O)C(=O)N[C@H](C(N)=O)[C@@H](C)CC)NC(=O)[C@H](Cc4c[nH]c5ccccc45)NC(=O)[C@H](CC(C)C)NC(=O)[C@H](CCCCN)NC(=O)[C@H](CSSC[C@H](NC(=O)[C@H]([C@@H](C)O)NC(=O)[C@H](Cc4c[nH]c5ccccc45)NC1=O)C(=O)N[C@@H](CC(=O)O)C(=O)N[C@@H](CO)C(=O)N[C@@H](CCCCN)C(=O)N[C@@H](CCCNC(=N)N)C(=O)N[C@@H](C)C(=O)N3)NC(=O)[C@H](CCCNC(=N)N)NC(=O)[C@H](CC(C)C)NC(=O)CNC(=O)[C@H](Cc1cn(CCCOCCOCCOCCOCCOCCOCCOCCOCCOCCOCCN)nn1)NC2=O [compound 406]	11
CCCC[C@@H]1NC(=O)[C@H](Cc2c[nH]c3ccccc23)NC(=O)[C@H](CCCCN)NC(=O)[C@H](CCC(N)=O)NC(=O)[C@@H](NC(=O)[C@@H](N)Cc2cn(CCCOCCOCCOCCOCCOCCOCCOCCOCCOCCOCCN)nn2)CSSC[C@@H]2NC(=O)[C@@H]3CSSC[C@@H](C(=O)N[C@@H](CCCNC(=N)N)C(=O)N[C@@H](CCCCN)C(=O)N[C@H](C(=O)N[C@H](C(N)=O)[C@@H](C)CC)[C@@H](C)CC)NC(=O)[C@H](Cc4c[nH]c5ccccc45)NC(=O)[C@H](CC(C)C)NC(=O)[C@H](CCCCN)NC(=O)[C@H](CSSC[C@H](NC(=O)[C@H]([C@@H](C)O)NC(=O)[C@H](Cc4c[nH]c5ccccc45)NC1=O)C(=O)N[C@@H](CC(=O)O)C(=O)N[C@@H](CO)C(=O)N[C@@H](CCCCN)C(=O)N[C@@H](CCCNC(=N)N)C(=O)N[C@@H](C)C(=O)N3)NC(=O)[C@H](CCC(=O)O)NC(=O)[C@H](CC(C)C)NC(=O)CNC(=O)[C@H](CCC(=O)O)NC2=O [compound 407]	85
